Reference: patent publication US6737383B1, “Herbicidal oxadiazolidines” (priority 1999, dated 2004)

Key:
smallflower flatsedge = experiment: Test B flood test smallflower flatsedge; format: in vivo, Cyperus difformis
Procedure, shortened: (§1)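 Flood test on plants grown to the 2-leaf stage; treated plants kept in greenhouse twelve to sixteen days, then visually rated against controls on a 0 (no effect) to 10 (complete control) scale.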

rice = experiment: Test B flood test rice; format: in vivo, Oryza sativa
Procedure, shortened: as §1

velvetleaf = experiment: Test B pre/postemergence velvetleaf; format: in vivo, Abutilon theophrasti
Procedure, shortened: (§2)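 Response is a visual 0-to-10 score relative to untreated plants, where 0 means no effect and 10 means complete control, taken twelve to sixteen days after application. Treatments went onto soil at planting and onto foliage of 1- to 4-leaf plants, using a surfactant-containing non-phytotoxic solvent.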

cocklebur = experiment: Test B pre/postemergence cocklebur; format: in vivo, Xanthium strumarium
Procedure, shortened: as §2

crabgrass = experiment: Test B pre/postemergence crabgrass; format: in vivo, Digitaria sanguinalis
Procedure, shortened: as §2

surinam grass = experiment: Test B pre/postemergence surinam grass; format: in vivo, Brachiaria decumbens
Procedure, shortened: as §2

rape = experiment: Test B pre/postemergence rape; format: in vivo, Brassica napus
Procedure, shortened: as §2

giant foxtail = experiment: Test B pre/postemergence giant foxtail; format: in vivo, Setaria faberii
Procedure, shortened: as §2

wild oat = experiment: Test B pre/postemergence wild oat; format: in vivo, Avena fatua
Procedure, shortened: as §2

corn = experiment: Test B pre/postemergence corn; format: in vivo, Zea mays
Procedure, shortened: as §2

morningglory = experiment: Test B pre/postemergence morningglory; format: in vivo, Ipomoea hederacea
Procedure, shortened: as §2

sugar beet = experiment: Test B pre/postemergence sugar beet; format: in vivo, Beta vulgaris
Procedure, shortened: as §2

blackgrass = experiment: Test B pre/postemergence blackgrass; format: in vivo, Alopecurus myosuroides
Procedure, shortened: as §2

bedstraw = experiment: Test B pre/postemergence bedstraw; format: in vivo, Galium aparine
Procedure, shortened: as §2

bamyardgrass = experiment: Test B flood test barnyardgrass; format: in vivo, Echinochloa crus-galli
Procedure, shortened: as §1

pigweed = experiment: Test B pre/postemergence pigweed; format: in vivo, Amaranthus retroflexus
Procedure, shortened: as §2

[1] = Postemergence, Rate 62 g/ha, scale 0 to 10, 0 is no effect, 10 is complete control
[2] = Rate 125 g/ha, Postemergence section (flood test species), scale 0 to 10, 0 no effect, 10 complete control
[3] = flood test, listed under Postemergence, Rate 250 g/ha, scale 0 to 10, 0 no effect, 10 complete control
[4] = Rate 500 g/ha, Postemergence section of Table B, 0 to 10 scale (0 no effect, 10 complete control)
[5] = Postemergence, Rate 250 g/ha, scale 0 to 10, 0 no effect, 10 complete control
[6] = Preemergence, Rate 62 g/ha, scale 0 to 10, 0 is no effect, 10 is complete control
[7] = Preemergence, Rate 125 g/ha, scale 0 to 10 (0 no effect, 10 complete control)
[8] = Preemergence, Rate 250 g/ha, scale of 0 to 10 where 0 is no effect and 10 is complete control
[9] = Preemergence, Rate 500 g/ha, scale 0 (no effect) to 10 (complete control)
[10] = Rate 125 g/ha, Postemergence, scale 0 to 10, 0 no effect, 10 complete control
[11] = Rate 500 g/ha, Postemergence, 0 to 10 scale (0 no effect, 10 complete control)

## CC(C)N(C(=O)n1oc(=O)n(-c2ccc(Cl)cc2C(F)(F)F)c1=O)c1ccc(F)cc1 [Compound 20]
Smallflower flatsedge; [1]
  S. Flatsedge plant response rating: 0
Smallflower flatsedge; [2]
  S. Flatsedge plant response rating: 0
Smallflower flatsedge; [3]
  S. Flatsedge plant response rating: 0
rice; [1]
  Rice plant response rating: 0
rice; [2]
  Rice plant response rating: 0
rice; [4]
  Rice plant response rating: 2
rice; [3]
  Rice plant response rating: 0
velvetleaf; [1]
  Velvetleaf plant response rating: 0
velvetleaf; [5]
  Velvetleaf plant response rating: 0
velvetleaf; [6]
  Plant response rating, Velvetleaf: 0
velvetleaf; [7]
  Plant response rating, Velvetleaf: 0
velvetleaf; [8]
  Plant response rating, Velvetleaf: 0
velvetleaf; [9]
  Velvetleaf plant response rating: 0
velvetleaf; [10]
  Velvetleaf plant response rating: 0
cocklebur; [1]
  Cocklebur plant response rating: 0
cocklebur; [5]
  Cocklebur plant response rating: 0
cocklebur; [6]
  Plant response rating, Cocklebur: 0
cocklebur; [7]
  Plant response rating, Cocklebur: 0
cocklebur; [8]
  Plant response rating, Cocklebur: 0
cocklebur; [9]
  Cocklebur plant response rating: 0
cocklebur; [10]
  Cocklebur plant response rating: 0
cocklebur; [11]
  Cocklebur plant response rating: 0
crabgrass; [1]
  Crabgrass plant response rating: 0
crabgrass; [5]
  Crabgrass plant response rating: 3
crabgrass; [6]
  Plant response rating, Crabgrass: 1
crabgrass; [7]
  Plant response rating, Crabgrass: 2
crabgrass; [8]
  Plant response rating, Crabgrass: 6
crabgrass; [9]
  Crabgrass plant response rating: 7
crabgrass; [10]
  Crabgrass plant response rating: 0
crabgrass; [11]
  Crabgrass plant response rating: 7
Surinam grass; [1]
  B. signalgrass plant response rating: 0
Surinam grass; [5]
  B. signalgrass plant response rating: 0
Surinam grass; [6]
  Plant response rating, B. signalgrass: 0
Surinam grass; [7]
  Plant response rating, B. signalgrass: 0
Surinam grass; [8]
  Plant response rating, B. signalgrass: 0
Surinam grass; [9]
  B. signalgrass plant response rating: 0
Surinam grass; [10]
  B. signalgrass plant response rating: 0
Surinam grass; [11]
  B. signalgrass plant response rating: 0
rape; [1]
  Rape plant response rating: 0
rape; [5]
  Rape plant response rating: 0
rape; [6]
  Plant response rating, Rape: 0
rape; [7]
  Plant response rating, Rape: 0
rape; [8]
  Plant response rating, Rape: 0
rape; [9]
  Rape plant response rating: 0
rape; [10]
  Rape plant response rating: 0
rape; [11]
  Rape plant response rating: 0
Giant foxtail; [1]
  Giant foxtail plant response rating: 0
Giant foxtail; [5]
  Giant foxtail plant response rating: 1
Giant foxtail; [6]
  Plant response rating, Giant foxtail: 3
Giant foxtail; [7]
  Plant response rating, Giant foxtail: 5
Giant foxtail; [8]
  Plant response rating, Giant foxtail: 7
Giant foxtail; [9]
  Giant foxtail plant response rating: 9
Giant foxtail; [10]
  Giant foxtail plant response rating: 0
Giant foxtail; [11]
  Giant foxtail plant response rating: 1
Wild oat; [1]
  Wild oats plant response rating: 0
Wild oat; [5]
  Wild oats plant response rating: 0
Wild oat; [7]
  Plant response rating, Wild oats: 0
Wild oat; [8]
  Plant response rating, Wild oats: 0
Wild oat; [9]
  Wild oats plant response rating: 0
Wild oat; [10]
  Wild oats plant response rating: 0
corn; [1]
  Corn plant response rating: 0
corn; [5]
  Corn plant response rating: 0
corn; [6]
  Plant response rating, Corn: 0
corn; [7]
  Plant response rating, Corn: 0
corn; [8]
  Plant response rating, Corn: 0
corn; [9]
  Corn plant response rating: 0
corn; [10]
  Corn plant response rating: 0
corn; [11]
  Corn plant response rating: 0
morningglory; [1]
  Morningglory plant response rating: 4
morningglory; [5]
  Morningglory plant response rating: 7
morningglory; [6]
  Plant response rating, Morningglory: 0
morningglory; [7]
  Plant response rating, Morningglory: 0
morningglory; [8]
  Plant response rating, Morningglory: 0
morningglory; [9]
  Morningglory plant response rating: 0
morningglory; [10]
  Morningglory plant response rating: 7
morningglory; [11]
  Morningglory plant response rating: 8
Sugar beet; [1]
  Sugarbeets plant response rating: 0
Sugar beet; [6]
  Plant response rating, Sugarbeets: 0
Sugar beet; [7]
  Plant response rating, Sugarbeets: 0
Sugar beet; [8]
  Plant response rating, Sugarbeets: 2
Sugar beet; [9]
  Sugarbeets plant response rating: 7
Sugar beet; [10]
  Sugarbeets plant response rating: 0
blackgrass; [1]
  Blackgrass plant response rating: 0
blackgrass; [5]
  Blackgrass plant response rating: 0
blackgrass; [6]
  Plant response rating, Blackgrass: 0
blackgrass; [7]
  Plant response rating, Blackgrass: 1
blackgrass; [8]
  Plant response rating, Blackgrass: 1
blackgrass; [9]
  Blackgrass plant response rating: 5
blackgrass; [10]
  Blackgrass plant response rating: 0
blackgrass; [11]
  Blackgrass plant response rating: 2
bedstraw; [1]
  Bedstraw plant response rating: 3
bedstraw; [5]
  Bedstraw plant response rating: 4
bedstraw; [6]
  Plant response rating, Bedstraw: 0
bedstraw; [7]
  Plant response rating, Bedstraw: 0
bedstraw; [8]
  Plant response rating, Bedstraw: 2
bedstraw; [9]
  Bedstraw plant response rating: 6
bedstraw; [10]
  Bedstraw plant response rating: 3
bedstraw; [11]
  Bedstraw plant response rating: 5
bamyardgrass; [1]
  Barnyardgrass plant response rating: 0
bamyardgrass; [2]
  Barnyardgrass plant response rating: 0
bamyardgrass; [4]
  Barnyardgrass plant response rating: 0
bamyardgrass; [3]
  Barnyardgrass plant response rating: 0
pigweed; [1]
  Redroot pigweed plant response rating: 3
pigweed; [5]
  Redroot pigweed plant response rating: 3
pigweed; [6]
  Plant response rating, Redroot pigweed: 0
pigweed; [7]
  Plant response rating, Redroot pigweed: 2
pigweed; [8]
  Plant response rating, Redroot pigweed: 4
pigweed; [9]
  Redroot pigweed plant response rating: 9
pigweed; [10]
  Redroot pigweed plant response rating: 3
pigweed; [11]
  Redroot pigweed plant response rating: 4
